In patent US11117930B2, “Peptide inhibitors of transcription factor aggregation” (ADRX, INC., priority 2017, dated 2021):
Read-outs that look alike come from different tables or passages of the source. Non-standard residues stand in square brackets, D forms with d. Residues, ends and D or L forms follow the SMILES beside them. No end group written: not given here.

How the values were obtained:
[1] = Protein binding in human serum; type: in vitro ADME; conditions: CPP linked peptides
Stability in human serum = type: in vitro ADME; conditions: CPP linked peptides, read-out: Stability in Human Serum (t1/2)
Detroit-562 = type: cell-based; conditions: 24 h
Description: (§1) To render the inhibitors cell permeable, the peptides are fused to either a nine-residue poly L-Arg tag or a nine-residue poly D-Arg tag, through one of several three-residue linkers, either L-RPI, D-RPI, or D-GGG. Cancer cell lines, e.g. OVCAR-3, and Detroit 562 are treated with the peptide conjugates for 24 hours by the following method. OVCAR3 and Detroit-562 cells are grown in ATCC recommended growth media. The peptides were made in a 4 mM stock. Cells are plated in 96-well flat bottom clear plates at 7000 cells/well. After 24 hours, compounds are serially diluted in one-third [starting at 33 μM] or one-half [starting at 30 μM] dilutions in PrEGM media (Lonza). Growth media was removed from the wells and compound in PrEGM was added to 100 ul final volume. 24 hours post-compound addition cell metabolism was measured by addition of 20 μl MTS solution (Promega, cell-titer 96 aqueous). Absorbance was read at 490 nm following a 2 hour incubation and data was processed in Prism Graphpad to generate EC50 values.

OVCAR3 = type: cell-based; conditions: 24 h
Description: as §1

Molecule | fraction unbound [1] | half-life (Stability in human serum) [h] | EC50 (Detroit-562) [µM] | EC50 (OVCAR3) [µM] | half-life (Stability in human serum; cells given in hr) [h]
CC[C@H](C)[C@H](NC(=O)[C@@H]1CCCN1C(=O)[C@H](CCCNC(=N)N)NC(=O)[C@H](CCCNC(=N)N)NC(=O)[C@H](CCCNC(=N)N)NC(=O)[C@H](CCCNC(=N)N)NC(=O)[C@H](CCCNC(=N)N)NC(=O)[C@H](CCCNC(=N)N)NC(=O)[C@H](CCCNC(=N)N)NC(=O)[C@H](CCCNC(=N)N)NC(=O)[C@H](CCCNC(=N)N)NC(=O)[C@@H](N)CCCNC(=N)N)C(=O)N[C@H](CCCCN)C(=O)N[C@H](Cc1ccccc1)C(=O)N[C@H](CCCNC(=N)N)C(=O)N[C@H](Cc1ccccc1)C(=O)N[C@H](Cc1ccc(O)cc1)C(=O)N[C@H](Cc1c[nH]cn1)C(=O)N[C@H](CCCNC(=N)N)C(=O)O [RRRRRRRRRRPIkfrfyhr] (H-RRRRRRRRRRPI[dK][dF][dR][dF][dY][dH][dR]-OH; N-terminus and C-terminus assumed) | 0.19 | 4.42 | 15 | 11 | –
CC[C@H](C)[C@H](NC(=O)[C@@H]1CCCN1C(=O)[C@H](CCCNC(=N)N)NC(=O)[C@H](CCCNC(=N)N)NC(=O)[C@H](CCCNC(=N)N)NC(=O)[C@H](CCCNC(=N)N)NC(=O)[C@H](CCCNC(=N)N)NC(=O)[C@H](CCCNC(=N)N)NC(=O)[C@H](CCCNC(=N)N)NC(=O)[C@H](CCCNC(=N)N)NC(=O)[C@H](CCCNC(=N)N)NC(=O)[C@@H](N)CCCNC(=N)N)C(=O)N[C@H](CCC(N)=O)C(=O)N[C@H](CCC(N)=O)C(=O)N[C@H](CCCNC(=N)N)C(=O)N[C@H](Cc1ccc(O)cc1)C(=O)N[C@H](Cc1ccc(O)cc1)C(=O)N[C@H](Cc1c[nH]c2ccccc12)C(=O)N[C@H](CCCNC(=N)N)C(=O)O [RRRRRRRRRRPIqqryywr] (H-RRRRRRRRRRPI[dQ][dQ][dR][dY][dY][dW][dR]-OH; N-terminus and C-terminus assumed) | 0.18 | 10 | 12 | 22 | –
CC[C@H](C)[C@H](NC(=O)[C@@H]1CCCN1C(=O)[C@H](CCCNC(=N)N)NC(=O)[C@H](CCCNC(=N)N)NC(=O)[C@H](CCCNC(=N)N)NC(=O)[C@H](CCCNC(=N)N)NC(=O)[C@H](CCCNC(=N)N)NC(=O)[C@H](CCCNC(=N)N)NC(=O)[C@H](CCCNC(=N)N)NC(=O)[C@H](CCCNC(=N)N)NC(=O)[C@H](CCCNC(=N)N)NC(=O)[C@@H](N)CCCNC(=N)N)C(=O)N[C@H](CCCNC(=N)N)C(=O)N[C@H](Cc1ccccc1)C(=O)N[C@H](Cc1ccc(O)cc1)C(=O)N[C@H](Cc1ccc(O)cc1)C(=O)N[C@H](Cc1c[nH]cn1)C(=O)N[C@H](CCCNC(=N)N)C(=O)N[C@H](CCCNC(=N)N)C(=O)O [RRRRRRRRRRPIrfyyhrr] (H-RRRRRRRRRRPI[dR][dF][dY][dY][dH][dR][dR]-OH; N-terminus and C-terminus assumed) | 0.09 | 0.95 | 9 | 16 | –
CC[C@H](C)[C@H](NC(=O)[C@@H]1CCCN1C(=O)[C@H](CCCNC(=N)N)NC(=O)[C@H](CCCNC(=N)N)NC(=O)[C@H](CCCNC(=N)N)NC(=O)[C@H](CCCNC(=N)N)NC(=O)[C@H](CCCNC(=N)N)NC(=O)[C@H](CCCNC(=N)N)NC(=O)[C@H](CCCNC(=N)N)NC(=O)[C@H](CCCNC(=N)N)NC(=O)[C@H](CCCNC(=N)N)NC(=O)[C@@H](N)CCCNC(=N)N)C(=O)N[C@H](Cc1ccc(O)cc1)C(=O)N[C@H](CCC(N)=O)C(=O)N[C@H](Cc1c[nH]c2ccccc12)C(=O)N[C@H](Cc1ccc(O)cc1)C(=O)N[C@H](CCCNC(=N)N)C(=O)N[C@H](Cc1c[nH]c2ccccc12)C(=O)N[C@H](CCC(N)=O)C(=O)O [RRRRRRRRRRPIyqwyrwq] (H-RRRRRRRRRRPI[dY][dQ][dW][dY][dR][dW][dQ]-OH; N-terminus and C-terminus assumed) | 0.02 | 0.833 | 13 | 10 | –
N=C(N)NCCC[C@@H](N)C(=O)N[C@H](CCCNC(=N)N)C(=O)N[C@H](CCCNC(=N)N)C(=O)N[C@H](CCCNC(=N)N)C(=O)N[C@H](CCCNC(=N)N)C(=O)N[C@H](CCCNC(=N)N)C(=O)N[C@H](CCCNC(=N)N)C(=O)N[C@H](CCCNC(=N)N)C(=O)N[C@H](CCCNC(=N)N)C(=O)NCC(=O)NCC(=O)NCC(=O)N[C@H](Cc1ccc(O)cc1)C(=O)N[C@H](CCC(N)=O)C(=O)N[C@H](Cc1c[nH]c2ccccc12)C(=O)N[C@H](Cc1ccc(O)cc1)C(=O)N[C@H](CCCNC(=N)N)C(=O)N[C@H](Cc1c[nH]c2ccccc12)C(=O)N[C@H](CCC(N)=O)C(=O)O [rrrrrrrrrgggyqwyrwq] (H-[dR][dR][dR][dR][dR][dR][dR][dR][dR]GGG[dY][dQ][dW][dY][dR][dW][dQ]-OH; N-terminus and C-terminus assumed) | 0.11 | – | 8 | 6 | > 24
CC[C@@H](C)[C@@H](NC(=O)[C@H]1CCCN1C(=O)[C@@H](CCCNC(=N)N)NC(=O)[C@@H](CCCNC(=N)N)NC(=O)[C@@H](CCCNC(=N)N)NC(=O)[C@@H](CCCNC(=N)N)NC(=O)[C@@H](CCCNC(=N)N)NC(=O)[C@@H](CCCNC(=N)N)NC(=O)[C@@H](CCCNC(=N)N)NC(=O)[C@@H](CCCNC(=N)N)NC(=O)[C@@H](CCCNC(=N)N)NC(=O)[C@H](N)CCCNC(=N)N)C(=O)N[C@H](Cc1c[nH]cn1)C(=O)N[C@H](CC(C)C)C(=O)N[C@H](CCCNC(=N)N)C(=O)N[C@@H](C(=O)N[C@H](Cc1c[nH]c2ccccc12)C(=O)N[C@H](CCCNC(=N)N)C(=O)N[C@H](CC(N)=O)C(=O)O)[C@H](C)CC [rrrrrrrrrrpihlriwrn] (H-[dR][dR][dR][dR][dR][dR][dR][dR][dR][dR][dP][dI][dH][dL][dR][dI][dW][dR][dN]-OH; N-terminus and C-terminus assumed) | 0.05 | – | 4 | 4 | > 24
CC[C@@H](C)[C@@H](NC(=O)[C@H]1CCCN1C(=O)[C@@H](CCCNC(=N)N)NC(=O)[C@@H](CCCNC(=N)N)NC(=O)[C@@H](CCCNC(=N)N)NC(=O)[C@@H](CCCNC(=N)N)NC(=O)[C@@H](CCCNC(=N)N)NC(=O)[C@@H](CCCNC(=N)N)NC(=O)[C@@H](CCCNC(=N)N)NC(=O)[C@@H](CCCNC(=N)N)NC(=O)[C@@H](CCCNC(=N)N)NC(=O)[C@H](N)CCCNC(=N)N)C(=O)N[C@H](Cc1c[nH]cn1)C(=O)N[C@H](CCC(N)=O)C(=O)N[C@H](CCCNC(=N)N)C(=O)N[C@H](CCC(N)=O)C(=O)N[C@H](Cc1ccc(O)cc1)C(=O)N[C@H](CCC(N)=O)C(=O)N[C@H](CCCNC(=N)N)C(=O)O [rrrrrrrrrrpihqrqyqr] (H-[dR][dR][dR][dR][dR][dR][dR][dR][dR][dR][dP][dI][dH][dQ][dR][dQ][dY][dQ][dR]-OH; N-terminus and C-terminus assumed) | 0.88 | – | 35 | 27 | > 24
CC[C@@H](C)[C@@H](NC(=O)[C@H]1CCCN1C(=O)[C@@H](CCCNC(=N)N)NC(=O)[C@@H](CCCNC(=N)N)NC(=O)[C@@H](CCCNC(=N)N)NC(=O)[C@@H](CCCNC(=N)N)NC(=O)[C@@H](CCCNC(=N)N)NC(=O)[C@@H](CCCNC(=N)N)NC(=O)[C@@H](CCCNC(=N)N)NC(=O)[C@@H](CCCNC(=N)N)NC(=O)[C@@H](CCCNC(=N)N)NC(=O)[C@H](N)CCCNC(=N)N)C(=O)N[C@H](CCCCN)C(=O)N[C@H](Cc1ccccc1)C(=O)N[C@H](CCCNC(=N)N)C(=O)N[C@H](Cc1ccccc1)C(=O)N[C@H](Cc1ccc(O)cc1)C(=O)N[C@H](Cc1c[nH]cn1)C(=O)N[C@H](CCCNC(=N)N)C(=O)O [rrrrrrrrrrpikfrfyhr] (H-[dR][dR][dR][dR][dR][dR][dR][dR][dR][dR][dP][dI][dK][dF][dR][dF][dY][dH][dR]-OH) | 0.14 | – | 5 | 4 | > 24
CC[C@@H](C)[C@@H](NC(=O)[C@H]1CCCN1C(=O)[C@@H](CCCNC(=N)N)NC(=O)[C@@H](CCCNC(=N)N)NC(=O)[C@@H](CCCNC(=N)N)NC(=O)[C@@H](CCCNC(=N)N)NC(=O)[C@@H](CCCNC(=N)N)NC(=O)[C@@H](CCCNC(=N)N)NC(=O)[C@@H](CCCNC(=N)N)NC(=O)[C@@H](CCCNC(=N)N)NC(=O)[C@@H](CCCNC(=N)N)NC(=O)[C@H](N)CCCNC(=N)N)C(=O)N[C@H](CCCCN)C(=O)N[C@H](Cc1c[nH]c2ccccc12)C(=O)N[C@H](CCCNC(=N)N)C(=O)N[C@H](Cc1c[nH]c2ccccc12)C(=O)N[C@H](Cc1ccc(O)cc1)C(=O)N[C@H](CCCNC(=N)N)C(=O)N[C@H](CCCNC(=N)N)C(=O)O [rrrrrrrrrrpikwrwyrr] (H-[dR][dR][dR][dR][dR][dR][dR][dR][dR][dR][dP][dI][dK][dW][dR][dW][dY][dR][dR]-OH; N-terminus and C-terminus assumed) | 0.06 | – | 5 | 4 | > 24
PRRRRRRRRRRPIWTIKLWHP | – | – | 6 | 4 | –
